Measurements from the NIST ThermoML archive (doi:10.1021/je800110r).

Details: 323.15 K, Liquid, Vibrating tube method

CCCCCCCCCC [decane]
Details | mass density [kg/m3]
19981 kPa | 723.9
20414 kPa | 724.1
20537 kPa | 724.2
20652 kPa | 724.2
20695 kPa | 724.1
20721 kPa | 724.3
20740 kPa | 724.4
20766 kPa | 724.4
20799 kPa | 724.3
20826 kPa | 724.5
20842 kPa | 724.5
20862 kPa | 724.5
20893 kPa | 724.5
20916 kPa | 724.4
20949 kPa | 724.5
20970 kPa | 724.6
20990 kPa | 724.5
21020 kPa | 724.4
21044 kPa | 724.5
21064 kPa | 724.7
21088 kPa | 724.5
21254 kPa | 724.7
21289 kPa | 724.7
21309 kPa | 724.8
21334 kPa | 724.7
21558 kPa | 724.9
21597 kPa | 725
21615 kPa | 724.9
21681 kPa | 725
21707 kPa | 725.1
21732 kPa | 725.1
21754 kPa | 725.1
21790 kPa | 725.1
21819 kPa | 725.1
21845 kPa | 725.1
21867 kPa | 725.2
21896 kPa | 725.2
21926 kPa | 725.2
21955 kPa | 725.2
21989 kPa | 725.3
22012 kPa | 725.3
22035 kPa | 725.2
22072 kPa | 725.4
22094 kPa | 725.2
22131 kPa | 725.4
22154 kPa | 725.4
22183 kPa | 725.4
22207 kPa | 725.4
22236 kPa | 725.3
22271 kPa | 725.5
22302 kPa | 725.5
22328 kPa | 725.5
22359 kPa | 725.5
22383 kPa | 725.5
22410 kPa | 725.6
22448 kPa | 725.6
22471 kPa | 725.6
22498 kPa | 725.7
22533 kPa | 725.6
22563 kPa | 725.7
22583 kPa | 725.8
22622 kPa | 725.6
22654 kPa | 725.8
22682 kPa | 725.7
23638 kPa | 726.6
23679 kPa | 726.7
24027 kPa | 726.8
24056 kPa | 726.8
24083 kPa | 726.8
24123 kPa | 726.9
24146 kPa | 726.8
24177 kPa | 726.9
24209 kPa | 727
24240 kPa | 726.9
24281 kPa | 727
24323 kPa | 727
24359 kPa | 727
24392 kPa | 727
24425 kPa | 727
24463 kPa | 727
24511 kPa | 727.1
24544 kPa | 727.1
24568 kPa | 727.3
24605 kPa | 727.2
24671 kPa | 727.3
25856 kPa | 728
25903 kPa | 728.1
25945 kPa | 728.2
25978 kPa | 728.2
26015 kPa | 728.1
26052 kPa | 728.2
26084 kPa | 728.3
26113 kPa | 728.2
26150 kPa | 728.3
26239 kPa | 728.3
26279 kPa | 728.4
26309 kPa | 728.5
26382 kPa | 728.5
26425 kPa | 728.4
26468 kPa | 728.7
26506 kPa | 728.5
26540 kPa | 728.6
26579 kPa | 728.6
26618 kPa | 728.6
26657 kPa | 728.8
26692 kPa | 728.7
27084 kPa | 728.9
27120 kPa | 729
27152 kPa | 729.1
27187 kPa | 729.1
27223 kPa | 729.1
27259 kPa | 729.1
27290 kPa | 729.1
27331 kPa | 729.1
27727 kPa | 729.5
27833 kPa | 729.5
28265 kPa | 729.7
28432 kPa | 729.9
29106 kPa | 730.4
29187 kPa | 730.5
29218 kPa | 730.5
29260 kPa | 730.5
29336 kPa | 730.6
29452 kPa | 730.6
29479 kPa | 730.7
29510 kPa | 730.7
29547 kPa | 730.7
29594 kPa | 730.7
31137 kPa | 731.8
31166 kPa | 731.8
31206 kPa | 731.8
32493 kPa | 732.8
32550 kPa | 732.8
32582 kPa | 732.7
32606 kPa | 732.8
32634 kPa | 732.8
32659 kPa | 732.7
